Data on five compounds can be found in PMC4764553, “Human cytomegalovirus IE1 protein alters the higher-order chromatin structure by targeting the acidic patch of the nucleosome” (eLife, 2016).

Molecules are shown by their SMILES. Residues, ends and D or L forms follow the SMILES beside them.

Assay [1] addresses T1, NCP (nucleosome core particle) (Homo sapiens, UniProt P04908+P06899+P62805+P68431).
T1 construct: made in house; host or cells: E. coli BL21(DE3)-RIL
Put plainly: biochemical. It counts as binding.

Assay [2] addresses T1, NCP (nucleosome core particle). Nature of the assay: ITC measurement of full-length IE1, IE1-CTD and IE1ΔCTD binding to NCP at 150 mM NaCl.
A further assay concerns 30-nm chromatin fiber. Nature of the assay: AUC sedimentation velocity of 30-nm chromatin fiber (with H1). Type of assay: biochemical, human. To be noted: 12 x 177 bp 601 array with H1, […], peptide/protein to NCP 5:1 molar ratio, 10 mM HEPES pH 8.0, 0.1 mM EDTA, listed as LANA-CTD. As for the experimental part: (§1) Recombinant human core histones were prepared as described above. Linker histone H1.4 and DNA templates of 12 tandem 177 bp repeats of the 601 sequence were cloned and purified, and reconstituted into chromatin as previously described ([Chen et al., 2013]; [Dyer et al., 2003]; [Li et al., 2010]; [Song et al., 2014]).
(§2) The reconstituted chromatin samples were subject to AUC analysis in a buffer containing 10 mM HEPES, pH 8.0 and 0.1 mM EDTA.

The test system of a further assay is nucleosomal arrays. Particulars: folding of nucleosomal arrays induced by magnesium ions; ref Chodaparambil et al., 2007; cited from earlier work. The text has this: For the purpose of dissecting the functions of individual NCP binding partners, one would ideally like to be able to isolate histone mutants that affect the binding of one protein but not others. The most promising such sites appear to lie in zone II and III, as they are less frequently occupied among known NCP binding proteins (Figure 2). […] Nevertheless, the identification of the E56R variant of histone H2A as an IE1-noninteracting mutant has already se ...

Assay [3] has as its target T2, human NCP carrying the E56R mutation of histone H2A (Homo sapiens, UniProt P04908+P06899+P62805+P68431, E57R).
T2 construct: made in house; host or cells: E. coli BL21(DE3)-RIL
Nature of the assay: ITC measurement of peptide binding to NCP reconstituted with H2A E56R mutant. To be noted: 20°C, 10 mM Tris-HCl pH 7.5, 50 mM NaCl, Figure 3. On the technique in general: In ITC the heat of successive injections is recorded.

The next assay deals with 10-nm nucleosomal array. Nature of the assay: AUC sedimentation velocity of 10-nm nucleosomal array (without H1). Type of assay: biochemical, human. Particulars: 12 x 177 bp 601 array without H1, […], peptide to NCP 5:1 molar ratio, 10 mM HEPES pH 8.0, 0.1 mM EDTA, array alone Save 36 ± 1 S, listed as LANA-CTD. As for the experimental part: as §1, §2

A word on the Kd: it is a measure of binding affinity in units of concentration. High values mean weaker binding, low ones tighter binding.

Compound `CSCC[C@H](NC(=O)[C@@H]1CCCN1C(=O)[C@H](C)NC(=O)[C@@H](NC(=O)[C@H](CO)NC(=O)[C@H](CCCCN)NC(=O)CNC(=O)CN)[C@@H](C)O)C(=O)N[C@H](C(=O)N[C@H](C(=O)N[C@@H](CCCNC(=N)N)C(=O)N[C@@H](CO)C(=O)N[C@@H](CCCCN)C(=O)N[C@@H](C)C(=O)N[C@@H](CC(=O)O)C(=O)N[C@@H](CCC(N)=O)C(=O)O)[C@@H](C)O)C(C)C` [H481A] (H-GGKSTAPMVTRSKADQ-OH) came in with a Kd in assay [1] of 43.4 ± 5.36 µM.
Consider `CSCC[C@H](NC(=O)[C@@H]1CCCN1C(=O)[C@H](Cc1c[nH]cn1)NC(=O)[C@@H](NC(=O)[C@H](CO)NC(=O)[C@H](CCCCN)NC(=O)CNC(=O)CN)[C@@H](C)O)C(=O)N[C@H](C(=O)N[C@H](C(=O)N[C@@H](CCCNC(=N)N)C(=O)N[C@@H](CO)C(=O)N[C@@H](CCCCN)C(=O)N[C@@H](C)C(=O)N[C@@H](CC(=O)O)C(=O)N[C@@H](CCC(N)=O)C(=O)O)[C@@H](C)O)C(C)C` [IE1-CTD], for which the equilibrium dissociation constant (Kd) in assay [1] was 0.42 ± 0.04 µM; in assay [2] it was 2.25 ± 0.1 µM.
As for `CSCC[C@H](NC(=O)CNC(=O)[C@@H]1CCCN1)C(=O)N[C@@H](CCCNC(=N)N)C(=O)N[C@@H](CC(C)C)C(=O)N[C@@H](CCCNC(=N)N)C(=O)N[C@@H](CO)C(=O)NCC(=O)N[C@@H](CCCNC(=N)N)C(=O)N[C@@H](CO)C(=O)N[C@H](C(=O)NCC(=O)N[C@@H](C)C(=O)N1CCC[C@H]1C(=O)O)[C@@H](C)O` [LANA] (H-PGMRLRSGRSTGAP-OH; N-terminus and C-terminus assumed), in the assay on 30-nm chromatin fiber, the “effect on folding of 30-nm chromatin fiber (in words)” value was “does not affect the folding of the 30-nm chromatin fiber”. In addition, in the assay on nucleosomal arrays, the “compaction of nucleosomal arrays (in words)” value is “promotes the compaction of nucleosomal arrays”. Also, in assay [3], the “N (ITC), H2A E56R NCP” value worked out at 2.03. Besides, in assay [1] (ITC, 20°C, 10 mM Tris-HCl pH 7.5, 50 mM NaCl, human NCP, Figure 3), the “N (ITC)” value came out at 1.97. The “effect on 10-nm nucleosomal array (in words)” value with 10-nm nucleosomal array is “slightly affected”.
`CSCC[C@H](NC(=O)[C@@H]1CCCN1C(=O)[C@H](Cc1c[nH]cn1)NC(=O)[C@@H](NC(=O)[C@H](CO)NC(=O)[C@H](CCCCN)NC(=O)CNC(=O)CN)[C@@H](C)O)C(=O)N[C@H](C(=O)N[C@H](C(=O)N[C@@H](CCCNC(=N)N)C(=O)N[C@@H](CO)C(=O)N[C@@H](CCCCN)C(=O)N[C@@H](C)C(=O)N[C@@H](CC(=O)O)C(=O)N[C@@H](CCC(N)=O)C(=O)O)C(C)C)C(C)C` [T485V] (H-GGKSTHPMVVRSKADQ-OH) returned a dissociation constant (Kd) in assay [1] of 11.3 ± 0.73 µM.
Still for that read-out and setting: then `CSCC[C@H](NC(=O)[C@@H]1CCCN1C(=O)[C@@H](N)Cc1c[nH]cn1)C(=O)N[C@H](C(=O)N[C@H](C(=O)N[C@@H](CCCNC(=N)N)C(=O)N[C@@H](CO)C(=O)N[C@@H](CCCCN)C(=O)N[C@@H](C)C(=O)N[C@@H](CC(=O)O)C(=O)N[C@@H](CCC(N)=O)C(=O)O)[C@@H](C)O)C(C)C` [Δ476–480] (H-HPMVTRSKADQ-OH), with 12.1 ± 0.45 µM.
